In patent publication US7138421B2, “Anti-androgenic pyrrolidines with tumor-inhibiting action” (Schring Aktiengesellschaft, priority 2003, dated 2006):

Test system: LNCaP cells
Experiment: Inhibition of the proliferation of LNCaP cells (crystal violet assay)
Type: cell-based, human
Conditions: for inhibition at 1 µM / IC50: Homo sapiens, LNCaP; for inhibition at 1 µM: 1 μM test substance, compared to cell growth in the presence of 0.1 nmol of R1881, read-out: % Inhibition at 1 μM; for IC50: in the presence of 0.1 nmol of R1881, 7 to 8 days, read-out: IC50 inhibition of the proliferation of LNCaP cells; for antiproliferative action (in words): LNCaP cells
Experimental: For the proliferation assay, 6000 LNCaP cells/well (Horoszewicz et al. Cancer Res. 1983, 43, 1809–1817) in a microtiter plate (96-well) in 50 μl of RPMI1640 medium are grown with 5% CCS and cultivated as in Model 1. After 24 hours, the cells receive 50 μl of 2×-concentrated test substance, diluted in culture medium. The solvent concentration is 0.5% DMSO. After 4 days, the cells receive another 100 μl of 1×-concentrated test substance, diluted in culture medium. After 7 to 8 days, the proliferation rate of the cells is determined by means of crystal violet assay (Gillies et al. Anal. Biochem. 1986, 159, 109–113). To determine the antagonism, the substance treatment is performed in the presence of […] of R1881 (1:1000 dilution of ethanolic solution). Control cells receive only 0.5% DMSO. For the agonism, the cells are treated only with test substance (without R1881).

| SMILES | inhibition at 1 µM | IC50 | antiproliferative action (in words) |
| --- | --- | --- | --- |
| CC1(C)C(=O)N(c2ccc(C#N)c(C(F)(F)F)c2)C(=S)N1CCCCN1CCCC1 [Comparison 1, 4-[4,4-Dimethyl-5-oxo-3-[4-(pyrrolidin-1-yl)butyl]-2-thioxoimidazolidin-1-yl]-2-(trifluoromethyl)benzonitrile, reference compound] | 20% | 4.3 µM | considerably reduced antiproliferative activity |
| CC1(C)C(=O)N(c2ccc(C#N)c(C(F)(F)F)c2)C(=S)N1CCCCCN1CCCC1 [Comparison 2, 4-[4,4-Dimethyl-5-oxo-3-[5-(pyrrolidin-1-yl)pentyl]-2-thioxoimidazolidin-1-yl]-2-(trifluoromethyl)benzonitrile, reference compound] | 38% | 2.1 µM | considerably reduced antiproliferative activity |
| CC1(C)C(=O)N(c2ccc(C#N)c(C(F)(F)F)c2)C(=S)N1CCCCCCCN1CCCC1 [Example 4, 4-[4,4-Dimethyl-5-oxo-3-[7-(pyrrolidin-1-yl)heptyl]-2-thioxoimidazolidin-1-yl]-2-(trifluoromethyl)benzonitrile] | 98% | 0.045 µM |  |
| CC1(C)C(=O)N(c2ccc(C#N)c(C(F)(F)F)c2)C(=S)N1CCCCCCN1CCC[C@@H]1CO [Example 6, 4-[3-[6-[(2R)-2-(Hydroxymethyl)pyrrolidin-1-yl]hexyl]-4,4-dimethyl-5-oxo-2-thioxoimidazolidin-1-yl]-2-(trifluoromethyl)benzonitrile] | 102% | 0.055 µM |  |
| CC1(C)C(=O)N(c2ccc(C#N)c(C(F)(F)F)c2)C(=S)N1CCCCCCCN1CCC[C@@H]1CO [Example 8, 4-[3-[7-[(2R)-2-(Hydroxymethyl)pyrrolidin-1-yl]heptyl]-4,4-dimethyl-5-oxo-2-thioxoimidazolidin-1-yl]-2-(trifluoromethyl)benzonitrile] | 101% | 0.011 µM |  |
| CC1(C)C(=O)N(c2ccc(C#N)c(C(F)(F)F)c2)C(=S)N1CCCCCCCCCN1CCC[C@@H]1CO [Example 12, 4-[3-[9-[(2R)-2-(Hydroxymethyl)pyrrolidin-1-yl]nonyl]-4,4-dimethyl-5-oxo-2-thioxoimidazolidin-1-yl]-2-(trifluoromethyl)benzonitrile] | 93% | 0.024 µM |  |
| CC1(C)C(=O)N(c2ccc(C#N)c(C(F)(F)F)c2)C(=S)N1CCCCCCCCCN1CCC[C@H]1CO [Example 13, 4-[3-[9-[(2S)-2-(Hydroxymethyl)pyrrolidin-1-yl]nonyl]-4,4-dimethyl-5-oxo-2-thioxoimidazolidin-1-yl]-2-(trifluoromethyl)benzonitrile] | 88% | 0.016 µM |  |
| COC[C@H]1CCCN1CCCCCCCN1C(=S)N(c2ccc(C#N)c(C(F)(F)F)c2)C(=O)C1(C)C [Example 16, 4-[3-[7-[(2R)-2-(Methoxymethyl)pyrrolidin-1-yl]heptyl]-4,4-dimethyl-5-oxo-2-thioxoimidazolidin-1-yl]-2-(trifluoromethyl)benzonitrile] | 98% | 0.018 µM |  |
| COC[C@@H]1CCCN1CCCCCCCN1C(=S)N(c2ccc(C#N)c(C(F)(F)F)c2)C(=O)C1(C)C [Example 17, 4-[3-[7-[(2S)-2-(Methoxymethyl)pyrrolidin-1-yl]heptyl]-4,4-dimethyl-5-oxo-2-thioxoimidazolidin-1-yl]-2-(trifluoromethyl)benzonitrile] | 99% | 0.032 µM |  |
| COC[C@H]1CCCN1CCCCCCCCN1C(=S)N(c2ccc(C#N)c(C(F)(F)F)c2)C(=O)C1(C)C [Example 18, 4-[3-[8-[(2R)-2-(Methoxymethyl)pyrrolidin-1-yl]octyl]-4,4-dimethyl-5-oxo-2-thioxoimidazolidin-1-yl]-2-(trifluoromethyl)benzonitrile] | 103% | 0.011 µM |  |
| COC[C@@H]1CCCN1CCCCCCCCN1C(=S)N(c2ccc(C#N)c(C(F)(F)F)c2)C(=O)C1(C)C [Example 19, 4-[3-[8-[(2S)-2-(Methoxymethyl)pyrrolidin-1-yl]octyl]-4,4-dimethyl-5-oxo-2-thioxoimidazolidin-1-yl]-2-(trifluoromethyl)benzonitrile] | 97% | 0.025 µM |  |
| COC[C@H]1CCCN1CCCCCCCCCN1C(=S)N(c2ccc(C#N)c(C(F)(F)F)c2)C(=O)C1(C)C [Example 20, 4-[3-[9-[(2R)-2-(Methoxymethyl)pyrrolidin-1-yl]nonyl]-4,4-dimethyl-5-oxo-2-thioxoimidazolidin-1-yl]-2-(trifluoromethyl)benzonitrile] | 101% | 0.029 µM |  |
| COC[C@@H]1CCCN1CCCCCCCCCN1C(=S)N(c2ccc(C#N)c(C(F)(F)F)c2)C(=O)C1(C)C [Example 21, 4-[3-[9-[(2S)-2-(Methoxymethyl)pyrrolidin-1-yl]nonyl]-4,4-dimethyl-5-oxo-2-thioxoimidazolidin-1-yl]-2-(trifluoromethyl)benzonitrile] | 94% | 0.047 µM |  |
| CC1(C)C(=O)N(c2ccc(C#N)c(C(F)(F)F)c2)C(=S)N1CCCCCCCN1C2CCC1CC(O)C2 (stereo not shown) [Example 23, 4-[3-[7-(3-Hydroxy-8-azabicyclo[3.2.1]oct-8-yl)heptyl]-4,4-dimethyl-5-oxo-2-thioxoimidazolidin-1-yl]-2-(trifluoromethyl)benzonitrile] | 79% | 0.048 µM |  |
| CC1(C)C(=O)N(c2ccc(C#N)c(C(F)(F)F)c2)C(=S)N1CCCCCCCCN1C2CCC1CC(O)C2 (stereo not shown) [Example 24, 4-[3-[8-(3-Hydroxy-8-azabicyclo[3.2.1]oct-8-yl)octyl]-4,4-dimethyl-5-oxo-2-thioxoimidazolidin-1-yl]-2-(trifluoromethyl)benzonitrile] | 102% | 0.013 µM |  |
| CC1(C)C(=O)N(c2ccc(C#N)c(C(F)(F)F)c2)C(=S)N1CCCCCCCN1CC[C@@H](O)C1 [Example 27, 4-[3-[7-[(R)-3-Hydroxypyrrolidin-1-yl]heptyl]-4,4-dimethyl-5-oxo-2-thioxoimidazolidin-1-yl]-2-(trifluoromethyl)benzonitrile] | 95% | 0.057 µM |  |
| CC1(C)C(=O)N(c2ccc(C#N)c(C(F)(F)F)c2)C(=S)N1CCCCCCCCN1CC[C@@H](O)C1 [Example 28, 4-[3-[8-[(R)-3-Hydroxypyrrolidin-1-yl]octyl]-4,4-dimethyl-5-oxo-2-thioxoimidazolidin-1-yl]-2-(trifluoromethyl)benzonitrile] | 102% | 0.011 µM |  |
| CC1(C)C(=O)N(c2ccc(C#N)c(C(F)(F)F)c2)C(=S)N1CCCCCCCCCN1CC[C@@H](O)C1 [Example 29, 4-[3-[9-[(R)-3-Hydroxypyrrolidin-1-yl]nonyl]-4,4-dimethyl-5-oxo-2-thioxoimidazolidin-1-yl]-2-(trifluoromethyl)benzonitrile] | 99% | 0.035 µM |  |
| CC1(C)C(=O)N(c2ccc(C#N)c(C(F)(F)F)c2)C(=S)N1CCCCCCCN1CC[C@H](O)C1 [Example 31, 4-[3-[7-[(S)-3-Hydroxypyrrolidin-1-yl]heptyl]-4,4-dimethyl-5-oxo-2-thioxoimidazolidin-1-yl]-2-(trifluoromethyl)benzonitrile] | 104% | 0.02 µM |  |
| CC1(C)C(=O)N(c2ccc(C#N)c(C(F)(F)F)c2)C(=S)N1CCCCCCCCN1CC[C@H](O)C1 [Example 32, 4-[3-[8-[(S)-3-Hydroxypyrrolidin-1-yl]octyl]-4,4-dimethyl-5-oxo-2-thioxoimidazolidin-1-yl]-2-(trifluoromethyl)benzonitrile] | 101% | 0.012 µM |  |
| CC1CCCN1CCCCCCCN1C(=S)N(c2ccc(C#N)c(C(F)(F)F)c2)C(=O)C1(C)C (stereo not shown) [Example 35, 4-[4,4-Dimethyl-3-[7-(2-methylpyrrolidin-1-yl)heptyl]-5-oxo-2-thioxoimidazolidin-1-yl]-2-(trifluoromethyl)benzonitrile] | 92% | 0.03 µM |  |
| CC1CCCN1CCCCCCCCN1C(=S)N(c2ccc(C#N)c(C(F)(F)F)c2)C(=O)C1(C)C (stereo not shown) [Example 36, 4-[4,4-Dimethyl-3-[8-(2-methylpyrrolidin-1-yl)octyl]-5-oxo-2-thioxoimidazolidin-1-yl]-2-(trifluoromethyl)benzonitrile] | 96% | 0.015 µM |  |
| CC(C)(O)[C@@H]1CCCN1CCCCCCCN1C(=S)N(c2ccc(C#N)c(C(F)(F)F)c2)C(=O)C1(C)C [Example 39, 4-[3-[7-[(2S)-2-(1-Hydroxy-1-methylethyl)pyrrolidin-1-yl]heptyl]-4,4-dimethyl-5-oxo-2-thioxoimidazolidin-1-yl]-2-(trifluoromethyl)benzonitrile] | 108% | 0.041 µM |  |
| CC(C)(O)[C@@H]1CCCN1CCCCCCCCCN1C(=S)N(c2ccc(C#N)c(C(F)(F)F)c2)C(=O)C1(C)C [Example 41, 4-[3-[9-[(2S)-2-(1-Hydroxy-1-methylethyl)pyrrolidin-1-yl]nonyl]-4,4-dimethyl-5-oxo-2-thioxoimidazolidin-1-yl]-2-(trifluoromethyl)benzonitrile] | 89% | 0.048 µM |  |
| CC(C)(O)[C@H]1CCCN1CCCCCCCN1C(=S)N(c2ccc(C#N)c(C(F)(F)F)c2)C(=O)C1(C)C [Example 43, 4-[3-[7-[(2R)-2-(1-Hydroxy-1-methylethyl)pyrrolidin-1-yl]heptyl]-4,4-dimethyl-5-oxo-2-thioxoimidazolidin-1-yl]-2-(trifluoromethyl)benzonitrile] | 113% | 0.026 µM |  |
